The results in this text go back to PubChem BioAssay (NCI).

Structures are written as SMILES.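 Method: 48-hour compound exposure of cells in 96-well plates, five concentrations, linear interpolation of endpoints. GI50 marks 50% less growth. TGI denotes the concentration required for complete inhibition of growth.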

Experiment in all cases: NCI tumour cell line growth inhibition, 48 h
The subject of assay [1] is HT29 colon.
The subject of assay [2] is A549 NSCLC.
For assay [3], the system named is EKVX NSCLC.
Assay [4] deals with UO-31 renal.
Assay [5] has as its system HCT-15 colon.
Assay [6] deals with MOLT-4 leukemia.
Assay [7] has as its system SK-MEL-28 melanoma.
Assay [8] concerns COLO 205 colon.
The subject of assay [9] is TK-10 renal.
Assay [10] deals with UACC-62 melanoma.

Turning to `O=C(NC[C@H](O)CN1CCc2ccccc2C1)c1cc(NC2COC2)ncn1`, the GI50 in [1] was 20.8 µM; in assay [2], 39.5 µM; in assay [3], 24.8 µM; in [4], 11.8 µM; in assay [5], 22.7 µM; in [6], 15.1 µM. Besides, the GI50 was 31.6 µM in assay [7], 13.4 µM in [8], 22 µM in assay [9] and 21.3 µM in assay [10]. For the same compound, the TGI in assay [1] was over 100 µM; in [2] it was over 100 µM; in assay [3], over 100 µM; in assay [4], 97.1 µM; in [5], over 100 µM; in [6], 49.3 µM. For the same compound, the TGI in assay [7] was over 100 µM; in [8] it was over 100 µM; in assay [9] it was 88.9 µM; in assay [10] it was over 100 µM.
As to `CN1CCC(=O)/C(=C/c2ccccc2)C1`, the TGI is 11 µM in [1]; 34.3 µM in assay [2]; 40.5 µM in assay [3]; 32.6 µM in [4]; over 50 µM in assay [5]; 34.3 µM in [6]. In addition, the TGI in [7] came out at 32.7 µM; in assay [8], 28.3 µM; in assay [9], 29.6 µM; in assay [10], 36.9 µM.
For the compound `O=[N+]([O-])c1ccc2occ3c2c1CCC3`, the TGI in assay [1], in assay [2], in assay [3], in assay [4], in assay [5] and in assay [6] was over 100 µM in each case. In addition, the TGI in [7], in [8], in assay [9] and in [10] was over 100 µM throughout.
For the compound `COc1ccc(CCN(C)C2CCC(C#N)(c3ccc(OC)c(OC)c3)CC2)cc1OC` (stereo not drawn), the TGI in assay [1], in [2], in assay [3], in assay [4], in assay [5] and in assay [6] was over 100 µM each time. Also, the TGI in assay [7] is over 100 µM; in assay [8], 91.4 µM; in assay [9] it was over 100 µM; in [10], over 100 µM.
For the compound `COC(=O)c1c2c(c(C)[n+]([O-])c1C)C(=O)C=C(NCc1ccc(F)cc1)C2=O`, the GI50 was 0.369 µM in assay [1]; 0.794 µM in [2]; 0.963 µM in assay [3]; 1.24 µM in assay [4]; 0.341 µM in [5]; 0.858 µM in [6]. Moreover, the GI50 in assay [7] was 1.1 µM; in assay [8], 0.301 µM; in [9], 3.3 µM; in assay [10] it was 0.175 µM. The TGI was 3.15 µM in [2]; 2.23 µM in [3]; 2.53 µM in assay [4]; 1.86 µM in [5]; 3.09 µM in assay [6]; 3.37 µM in assay [7]. Moreover, the TGI in assay [8] was determined as 0.97 µM; in [9], 9.55 µM; in assay [10], 1.16 µM.
For the compound `CCOC(=O)c1nc2c(OC)nn(O)cc-2c1[N+](=O)[O-]`, the TGI in assay [1] is 29.3 µM; in [2], over 100 µM; in [3], 36.4 µM; in [4], 42.4 µM; in [5] it was 36.2 µM; in assay [6], 75.1 µM. Also, the TGI in [7] worked out at 29.9 µM; in [8], 61.9 µM; in assay [9], 30 µM; in assay [10], 40.5 µM.
As to `Cc1nc(N)sc1N=Nc1ccccc1Br`, the TGI in assay [1] is 59 µM; in assay [2], over 100 µM; in [3], 76.3 µM; in assay [4], 60.5 µM; in [5], 69.8 µM; in assay [6] it was over 100 µM. The TGI in [7] is over 88.1 µM; in assay [8], over 93 µM; in assay [9], 70.4 µM; in [10] it was 45.4 µM.
As to `NC(N)=N/N=C/c1c(Cl)cccc1Cl`, the GI50 in assay [1] was 17 µM; in assay [2], 27.4 µM; in assay [3], 15.9 µM; in assay [4], 16.5 µM; in assay [5] it was 26.1 µM; in assay [6], 28.2 µM. Also, the GI50 in assay [7] was 17.6 µM; in assay [8], 17.2 µM; in assay [9], 21.9 µM; in [10], 18 µM. In addition, the TGI in assay [1] was 43.4 µM; in [2], over 100 µM; in [3], 47.5 µM; in assay [4] it was 64.7 µM; in assay [5] it was over 100 µM; in assay [6], 74.5 µM. Moreover, the TGI in assay [7] came to 34.6 µM; in assay [8], 32.1 µM; in [9] it was 66.3 µM; in assay [10] it was 37.3 µM.
Consider `O=c1oc2ccc(-c3ccc(F)cc3F)cc2c(=O)n1-c1cccc(C(F)(F)F)c1`, for which the GI50 in [1] is 3.24 µM; in [2], 1.75 µM; in assay [3], 2.16 µM; in assay [4], 1.38 µM; in [5], 1.61 µM; in [6] it was 2.15 µM. Also, the GI50 in assay [7] was 0.756 µM; in assay [8], 10.4 µM; in assay [9] it was 3.52 µM; in [10], 0.382 µM. Also, the TGI in [1] was 11.7 µM; in [2], 34.8 µM; in [3], over 100 µM; in [4], 8.22 µM; in assay [5], 23.4 µM; in assay [6], 4.97 µM. Besides, the TGI in assay [7] turned out to be 6.56 µM; in assay [8] it was 24.7 µM; in assay [9], 15.8 µM; in [10], 2.79 µM.
On to `C[C@@H]1C[C@@H]([C@@H](CC2CC(=O)NC(=O)C2)OC(=O)CC(=O)c2ccccc2)C(=O)[C@@H](C)C1`, for which the GI50 in assay [1] was 0.634 µM; in assay [2], 0.567 µM; in assay [3], 0.495 µM; in [4], 0.159 µM; in assay [5], 0.809 µM; in [6] it was 0.494 µM. Also, the GI50 is 0.752 µM in assay [7], 0.849 µM in assay [8], 0.306 µM in assay [9] and 0.915 µM in assay [10]. Also, the TGI was over 100 µM in [1]; over 100 µM in assay [2]; 5.1 µM in assay [4]; over 100 µM in [5]; over 100 µM in assay [6]; over 29.6 µM in [7]. Further, the TGI in assay [8] was over 100 µM; in assay [9], over 24.3 µM; in assay [10], over 100 µM.
Consider `S=c1[nH]c(=S)c2cc3ccccc3nc2[nH]1`, for which the GI50 in [1] is over 100 µM; in assay [2], over 100 µM; in [3], 31 µM; in [4] it was over 100 µM; in [5], over 100 µM; in assay [6] it was 4.68 µM. The GI50 in assay [7] was over 100 µM; in assay [8] it was 20.3 µM; in assay [9] it was 94.2 µM; in assay [10], 69.5 µM. The TGI in assay [1], in assay [2], in assay [3], in assay [4], in assay [5] and in assay [6] was over 100 µM each time. Further, the TGI in assay [7], in [8], in assay [9] and in [10] was over 100 µM in each case.
On to `Cc1ccc2nc(/C(=C/c3ccc(/C=C(\NC(=O)c4ccccc4)c4nc5ccc(C)cc5[nH]4)c(C)c3)NC(=O)c3ccccc3)[nH]c2c1`, for which the TGI is over 100 µM in assay [1]; 65.9 µM in assay [2]; over 100 µM in assay [3]; 30.8 µM in [4]; over 100 µM in assay [5]; 26.7 µM in assay [6]. Moreover, the TGI in assay [7] came to 44.1 µM; in assay [8] it was 80.4 µM; in assay [9] it was 88 µM; in assay [10], 13.1 µM.
With `CN(C)C(=S)/N=c1\sn(C)/c(=N\C(=S)N(C)C)n1C`, the TGI in [1], in [2], in assay [3], in [4], in [5] and in assay [6] was over 100 µM throughout. Also, the TGI in assay [7], in assay [8], in assay [9] and in assay [10] was over 100 µM in each case.
Take `N#C/C(=C\c1ccc2ccccc2c1)C(=O)c1ccccc1`: the TGI in assay [1] is over 100 µM; in assay [2] it was over 100 µM; in assay [3], over 100 µM; in [4], over 100 µM; in [5], over 100 µM; in assay [6], 68.8 µM. Besides, the TGI was over 100 µM in [7], over 100 µM in assay [8], over 100 µM in [9] and over 78.5 µM in assay [10].
`CCn1c(O)c(/C=N/NC(=O)C(C)c2ccc(CC(C)C)cc2)sc1=S` (stereo not drawn): the GI50 in [1] is 2.42 µM; in [2], 0.472 µM; in assay [3] it was 0.596 µM; in assay [4], 0.483 µM; in assay [5], 0.379 µM; in [6], 0.479 µM. For the same compound, the GI50 was 1 µM in [7], 1.23 µM in assay [8], 2.28 µM in [9] and 0.435 µM in [10]. Besides, the TGI in assay [1] was over 37.8 µM; in assay [2] it was over 54.4 µM; in assay [3], over 46 µM; in assay [4], 16.8 µM; in assay [5] it was over 35.4 µM; in [6], over 48.2 µM. The TGI was over 45.8 µM in assay [7], 9.04 µM in assay [8], over 50.7 µM in assay [9] and 15 µM in [10].
On to `CC1CC2CCCC(O)=C2C(=O)O1` (stereo not drawn), for which the TGI in assay [1], in [2], in [3], in [4], in assay [5] and in assay [6] was over 100 µM in each case. Moreover, the TGI in assay [7], in assay [8], in assay [9] and in assay [10] was over 100 µM throughout.
Regarding `CN1CCN(c2ccc(Nc3cc(-c4cccc(-n5ccc6cc(C7CC7)cc(F)c6c5=O)c4CO)cn(C)c3=O)nc2)CC1`, the GI50 in assay [1] is 3 µM; in [2] it was 5.27 µM; in assay [3], 2.62 µM; in [4] it was 1.72 µM; in assay [5], 5.11 µM; in assay [6] it was 3.73 µM. The GI50 was 4.1 µM in assay [7], 2.22 µM in assay [8], 3.69 µM in assay [9] and 2.4 µM in assay [10]. Further, the TGI is 13.9 µM in assay [1]; 19.2 µM in assay [2]; 9.11 µM in assay [3]; 3.46 µM in assay [4]; 26.1 µM in assay [5]; 19.1 µM in assay [6]. The TGI turned out to be 17 µM in [7], 5.72 µM in assay [8], 14.3 µM in [9] and 6.63 µM in assay [10].
On to `CCC(C)(C)c1ccc(OCCCCNC(=O)c2ccc3ccccc3c2O)c(C(C)(C)CC)c1`, for which the TGI was over 100 µM in assay [1]; over 100 µM in [2]; 87.9 µM in assay [3]; over 100 µM in [4]; 28.5 µM in assay [5]; over 100 µM in [6]. The TGI was over 100 µM in assay [7], 34.2 µM in assay [8], 80 µM in assay [9] and 92.4 µM in assay [10].
In the case of `C/C(CC(=O)Nc1ccc(C)c(C)c1)=N\N(c1ccccc1)c1ccccc1`, the TGI in assay [1], in assay [2], in assay [3], in assay [4], in [5] and in assay [6] was over 100 µM throughout. Moreover, the TGI in assay [7] was over 100 µM; in assay [8], 34.6 µM; in assay [9], over 100 µM; in [10] it was 57.4 µM.
On to `CC(NCCC(c1ccccc1)c1ccccc1)c1ccccc1` (stereo not drawn), for which the GI50 is 1.72 µM in assay [1]; 3.33 µM in assay [2]; 3.63 µM in [3]; 2.19 µM in assay [4]; 2.57 µM in [5]; 2.59 µM in assay [6]. For the same compound, the GI50 in assay [7] is 1.76 µM; in [8], 1.53 µM; in [9], 1.93 µM; in assay [10] it was 1.62 µM. The TGI in [1] stood at 3.39 µM; in assay [2] it was 12.8 µM; in [3] it was 16.5 µM; in assay [4] it was 12.1 µM; in assay [5] it was 7.83 µM; in [6], 7.15 µM. For the same compound, the TGI was found to be 3.26 µM in [7], 2.85 µM in assay [8], 4 µM in assay [9] and 3.57 µM in [10].
